The results in this text go back to patent US12559506B2, “Indazole based compounds and associated methods of use” (Arvinas Operations, Inc., priority 2021, dated 2026).

The Dmax is the largest share of the target that was removed. By DC50 is commonly meant the concentration at which degradation of the target reaches its halfway point.

For the test, the target named is T1, LRRK2 (endogenous, HiBit tagged) (Homo sapiens, UniProt Q5S007).
T1 construct: endogenous in cells; host or cells: HEK293 cells with HiBit knock-in at the endogenous LRRK2 locus, stably expressing firefly luciferase
The test can be described thus: Endogenous LRRK2 degradation assay, endogenous gene C-terminally HiBit-tagged in HEK293 cells (Nano-Glo Dual Luciferase). Type of test: cell-based. The procedure, abridged:
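LRRK2-HiBit quantified via Nano-Glo Dual Luciferase in HEK293 knock-in cells co-expressing firefly luciferase, after 24 h exposure to compound (1 μM final top, 1:3, 11 points). Values normalised to DMSO median per plate and curve-fitted; Alamar Blue viability run alongside.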
(In general: The HiBiT peptide binds its large partner to form an active luciferase.)

Where [1] appears, read: endogenous HiBit-tagged LRRK2 in HEK293 cells, 24 hours treatment, read-out: **Endogenous WT Dmax (%).
Where [2] appears, read: endogenous HiBit-tagged LRRK2 in HEK293 cells, 24 hours treatment, read-out: *Endogenous WT DC50.
Where [3] appears, read: endogenous HiBit-tagged LRRK2, HEK293 cells, 24 hours, read-out: **Endogenous WT Dmax (%).
Where [4] appears, read: endogenous HiBit-tagged LRRK2, HEK293 cells, 24 hours, read-out: *Endogenous WT DC50.
Where [5] appears, read: endogenous HiBit-tagged LRRK2 in HEK293 cells, 24 hours treatment, read-out: Endogenous WT DC50.
Setting [6] is: endogenous HiBit-tagged LRRK2 in HEK293 cells, 24 hours treatment, read-out: Endogenous WT Dmax.

Structures are written as SMILES. Where two headings read alike, the source gives them in different places.

T1 sequence (Q5S007 whole entry): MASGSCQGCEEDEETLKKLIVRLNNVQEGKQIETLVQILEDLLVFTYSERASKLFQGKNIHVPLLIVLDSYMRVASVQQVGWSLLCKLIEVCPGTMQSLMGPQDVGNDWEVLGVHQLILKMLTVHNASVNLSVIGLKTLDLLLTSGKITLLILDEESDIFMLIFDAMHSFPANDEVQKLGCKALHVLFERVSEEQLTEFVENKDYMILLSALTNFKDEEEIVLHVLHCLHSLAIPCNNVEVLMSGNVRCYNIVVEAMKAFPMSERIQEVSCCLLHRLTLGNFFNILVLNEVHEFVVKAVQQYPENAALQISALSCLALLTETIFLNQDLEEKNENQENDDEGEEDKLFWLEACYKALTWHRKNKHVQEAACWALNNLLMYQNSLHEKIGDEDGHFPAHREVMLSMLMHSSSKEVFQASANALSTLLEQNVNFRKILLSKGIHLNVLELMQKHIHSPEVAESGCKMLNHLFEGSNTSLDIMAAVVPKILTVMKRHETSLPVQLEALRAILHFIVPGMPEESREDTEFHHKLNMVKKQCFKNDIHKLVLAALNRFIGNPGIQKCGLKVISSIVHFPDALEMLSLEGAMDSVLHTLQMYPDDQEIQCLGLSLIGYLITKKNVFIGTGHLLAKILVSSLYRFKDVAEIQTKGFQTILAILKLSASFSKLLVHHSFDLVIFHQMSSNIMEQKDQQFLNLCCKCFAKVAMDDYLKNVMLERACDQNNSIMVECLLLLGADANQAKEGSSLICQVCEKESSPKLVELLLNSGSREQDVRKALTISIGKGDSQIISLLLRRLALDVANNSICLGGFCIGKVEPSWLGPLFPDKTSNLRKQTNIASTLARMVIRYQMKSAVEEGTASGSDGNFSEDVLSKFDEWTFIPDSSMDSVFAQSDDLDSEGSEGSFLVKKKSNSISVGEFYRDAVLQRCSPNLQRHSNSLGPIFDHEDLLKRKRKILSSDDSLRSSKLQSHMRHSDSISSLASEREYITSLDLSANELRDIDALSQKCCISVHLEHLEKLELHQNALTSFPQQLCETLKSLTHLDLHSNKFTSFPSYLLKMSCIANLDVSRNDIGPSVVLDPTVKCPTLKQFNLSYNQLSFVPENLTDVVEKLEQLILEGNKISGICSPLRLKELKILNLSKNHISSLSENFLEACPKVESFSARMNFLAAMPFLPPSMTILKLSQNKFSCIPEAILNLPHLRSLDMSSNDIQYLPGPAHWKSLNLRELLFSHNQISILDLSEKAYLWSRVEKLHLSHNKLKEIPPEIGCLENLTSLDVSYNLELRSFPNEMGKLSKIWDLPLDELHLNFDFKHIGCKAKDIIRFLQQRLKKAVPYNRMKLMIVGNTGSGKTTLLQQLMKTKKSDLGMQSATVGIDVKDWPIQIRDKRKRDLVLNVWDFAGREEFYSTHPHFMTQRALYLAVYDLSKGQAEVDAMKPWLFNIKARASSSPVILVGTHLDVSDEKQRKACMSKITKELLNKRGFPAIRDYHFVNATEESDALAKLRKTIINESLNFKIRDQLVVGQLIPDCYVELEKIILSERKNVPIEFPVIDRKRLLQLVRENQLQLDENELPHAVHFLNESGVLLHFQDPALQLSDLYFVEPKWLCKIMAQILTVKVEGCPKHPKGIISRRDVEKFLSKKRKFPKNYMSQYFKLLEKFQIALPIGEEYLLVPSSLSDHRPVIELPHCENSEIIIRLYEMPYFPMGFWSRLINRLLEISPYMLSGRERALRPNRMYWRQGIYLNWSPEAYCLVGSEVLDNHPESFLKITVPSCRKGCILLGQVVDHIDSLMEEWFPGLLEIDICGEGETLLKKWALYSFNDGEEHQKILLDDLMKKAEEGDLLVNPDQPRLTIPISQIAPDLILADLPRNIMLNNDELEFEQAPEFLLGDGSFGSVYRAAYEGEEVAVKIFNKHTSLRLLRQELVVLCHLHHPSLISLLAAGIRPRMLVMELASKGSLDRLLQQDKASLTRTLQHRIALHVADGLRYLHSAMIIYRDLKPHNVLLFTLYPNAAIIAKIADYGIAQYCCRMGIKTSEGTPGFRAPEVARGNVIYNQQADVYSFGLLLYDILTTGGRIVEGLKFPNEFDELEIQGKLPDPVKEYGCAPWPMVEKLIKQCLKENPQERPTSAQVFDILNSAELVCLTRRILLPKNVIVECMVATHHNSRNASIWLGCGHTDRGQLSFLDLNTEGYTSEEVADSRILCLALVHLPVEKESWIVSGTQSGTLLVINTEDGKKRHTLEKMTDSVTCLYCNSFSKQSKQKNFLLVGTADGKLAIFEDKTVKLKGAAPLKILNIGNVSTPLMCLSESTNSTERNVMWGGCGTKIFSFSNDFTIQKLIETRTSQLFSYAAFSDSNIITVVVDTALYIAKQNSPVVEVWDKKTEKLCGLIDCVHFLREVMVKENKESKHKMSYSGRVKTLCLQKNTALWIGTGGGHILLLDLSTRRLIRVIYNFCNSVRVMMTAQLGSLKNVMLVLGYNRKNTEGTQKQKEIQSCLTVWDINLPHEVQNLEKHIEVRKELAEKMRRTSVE

Turning to `COc1c(N2CCC(O[C@@H]3CCN(CC4CCN(c5cc(-c6n[nH]c7ccc(OC8(C)CC8)cc67)ncn5)CC4)C(C)(C)C3)CC2)ccc2c1CN(C1CCC(=O)NC1=O)C2=O` (stereo partly drawn) [Compound 322, 3-[5-(4-{[(4R)-2,2-dimethyl-1-[(1-{6-[5-(1-methylcyclopropoxy)-1H-indazol-3-yl]pyrimidin-4-yl}piperidin-4-yl)methyl]piperidin-4-yl]oxy}piperidin-1-yl)-4-methoxy-1-oxo-2,3-dihydro-1H-isoindol-2-yl]piperidine-2,6-dione], under setting [1], the Dmax fell in the range of 50 to 70%. For the same molecule, the DC50 under setting [2] is less than 10 nM.

As to `C[C@H]1CN(c2cc(-c3n[nH]c4cc(F)c(OC5(C)CC5)cc34)ncn2)CCN1CC1(F)CCN(CC2CCN(c3ccc4c(c3F)CN(C3CCC(=O)NC3=O)C4=O)CC2)CC1` (stereo partly drawn) [Compound 192, 3-[4-fluoro-5-[4-[[4-fluoro-4-[[(2S)-4-[6-[6-fluoro-5-(1-methylcyclopropoxy)-1H-indazol-3-yl]pyrimidin-4-yl]-2-methyl-piperazin-1-yl]methyl]-1-piperidyl]methyl]-1-piperidyl]-1-oxo-isoindolin-2-yl]piperidine-2,6-dione], under setting [3], the Dmax is no less than 70%. Also, the DC50 under setting [4] is less than 10 nM.

Turning to `CC1(Oc2ccc3[nH]nc(-c4cc(N5CCN(CC6(F)CCN(CC7CCN(c8cccc9c8CN(C8CCC(=O)NC8=O)C9=O)CC7)CC6)CC5)ncn4)c3c2)CC1` (centres unmarked) [Compound 179, 3-[4-[4-[[4-fluoro-4-[[4-[6-[5-(1-methylcyclopropoxy)-2H-indazol-3-yl]pyrimidin-4-yl]piperazin-1-yl]methyl]-1-piperidyl]methyl]-1-piperidyl]-1-oxo-isoindolin-2-yl]piperidine-2,6-dione], the Dmax under setting [3] fell in the range of 50 to 70%. In addition, the DC50 under setting [4] was less than 10 nM.

Regarding `COc1c(N2CCC(CN3CCN(CC4CCN(c5cc(-c6n[nH]c7ccc(OC8(C)CC8)cc67)ncn5)CC4)[C@@H](C)C3)CC2)ccc2c1CN(C1CCC(=O)NC1=O)C2=O` (stereo partly drawn) [Compound 256, 3-[4-methoxy-5-(4-{[(3S)-3-methyl-4-[(1-{6-[5-(1-methylcyclopropoxy)-1H-indazol-3-yl]pyrimidin-4-yl}piperidin-4-yl)methyl]piperazin-1-yl]methyl}piperidin-1-yl)-1-oxo-2,3-dihydro-1H-isoindol-2-yl]piperidine-2,6-dione], under setting [5], the DC50 was less than 10 nM. Moreover, the Dmax under setting [6] lay in the range of 50 to 70%.

As for `COc1c(N2CCC(O[C@H]3CC[C@H](CN4CCN(c5cc(-c6n[nH]c7cc(F)c(OC8(C)CC8)cc67)ncn5)CC4)CC3)CC2)ccc2c1CN(C1CCC(=O)NC1=O)C2=O` (some centres unmarked) [Compound 360, 3-[4-methoxy-1-oxo-5-(4-{[(1r,4r)-4-[(4-{6-[6-fluoro-5-(1-methylcyclopropoxy)-1H-indazol-3-yl]pyrimidin-4-yl}piperazin-1-yl)methyl]cyclohexyl]oxy}piperidin-1-yl)-2,3-dihydro-1H-isoindol-2-yl]piperidine-2,6-dione], the DC50 under setting [5] was less than 10 nM. In addition, the Dmax under setting [6] fell in the range of 50 to 70%.

As to `CC1(Oc2ccc3n[nH]c(-c4cc(N5CCN(C[C@H]6CO[C@H](CN7CCN(c8ccc9c(c8F)CN(C8CCC(=O)NC8=O)C9=O)CC7)CO6)CC5)ncn4)c3c2)CC1` (some centres unmarked) [Compound 296, 3-[4-fluoro-5-(4-{[(2r,5s)-5-[(4-{6-[5-(1-methylcyclopropoxy)-2H-indazol-3-yl]pyrimidin-4-yl}piperazin-1-yl)methyl]-1,4-dioxan-2-yl]methyl}piperazin-1-yl)-1-oxo-2,3-dihydro-1H-isoindol-2-yl]piperidine-2,6-dione], the Dmax under setting [1] lay within 50 to 70%. In addition, the DC50 under setting [2] is less than 10 nM.

As for `CC1(Oc2ccc3n[nH]c(-c4cc(N5CC(OC6CCN(CC7CCN(c8ccc9c(c8F)CN(C8CCC(=O)NC8=O)C9=O)CC7)CC6)C5)ncn4)c3c2)CC1` (centres unmarked) [Compound 289, 3-{4-fluoro-5-[4-({4-[(1-{6-[5-(1-methylcyclopropoxy)-2H-indazol-3-yl]pyrimidin-4-yl}azetidin-3-yl)oxy]piperidin-1-yl}methyl)piperidin-1-yl]-1-oxo-2,3-dihydro-1H-isoindol-2-yl}piperidine-2,6-dione], the Dmax under setting [1] was no less than 70%. Further, the DC50 under setting [2] was less than 10 nM.

`CC1(Oc2ccc3n[nH]c(-c4cc(N5CC(OCC6(F)CCN(CC7CCN(c8ccc9c(c8F)CN(C8CCC(=O)NC8=O)C9=O)CC7)CC6)C5)ncn4)c3c2)CC1` (centres unmarked) [Compound 200, 3-[4-fluoro-5-[4-[[4-fluoro-4-[[1-[6-[5-(1-methylcyclopropoxy)-2H-indazol-3-yl]pyrimidin-4-yl]azetidin-3-yl]oxymethyl]-1-piperidyl]methyl]-1-piperidyl]-1-oxo-isoindolin-2-yl]piperidine-2,6-dione]: the Dmax under setting [3] is no less than 70%. The DC50 under setting [4] was less than 10 nM.

In the case of `COc1cc(N2CCC(CN3CCC(F)(CN4CCN(c5cc(-c6n[nH]c7ccc(OC8(C)CC8)cc67)ncn5)CC4)CC3)CC2)cc2c1C(=O)N(C1CCC(=O)NC1=O)C2` (centres unmarked) [Compound 216, 3-{5-[4-({4-fluoro-4-[(4-{6-[5-(1-methylcyclopropoxy)-1H-indazol-3-yl]pyrimidin-4-yl}piperazin-1-yl)methyl]piperidin-1-yl}methyl)piperidin-1-yl]-7-methoxy-1-oxo-2,3-dihydro-1H-isoindol-2-yl}piperidine-2,6-dione], the DC50 under setting [5] was less than 10 nM. Also, the Dmax under setting [6] is no less than 70%.

Turning to `CC1(Oc2cc3c(-c4cc(N5CCC(CN6CCC(F)(CN7CCN(c8ccc9c(c8F)CN(C8CCC(=O)NC8=O)C9=O)CC7)CC6)CC5)ncn4)n[nH]c3cn2)CC1` (centres unmarked) [Compound 343, 3-{4-fluoro-5-[4-({4-fluoro-1-[(1-{6-[5-(1-methylcyclopropoxy)-1H-pyrazolo[3,4-c]pyridin-3-yl]pyrimidin-4-yl}piperidin-4-yl)methyl]piperidin-4-yl}methyl)piperazin-1-yl]-1-oxo-2,3-dihydro-1H-isoindol-2-yl}piperidine-2,6-dione], under setting [1], the Dmax lay in the range of 50 to 70%. Moreover, under setting [2], the DC50 is less than 10 nM.

For the molecule `C[C@H]1CN(CC2CCN(c3ccc4c(c3F)CN(C3CCC(=O)NC3=O)C4=O)CC2)CCN1CC1CCN(c2cc(-c3n[nH]c4cnc(OC5(C)CC5)cc34)ncn2)CC1` (stereo partly drawn) [Compound 266, 3-[4-fluoro-5-(4-{[(3S)-3-methyl-4-[(1-{6-[5-(1-methylcyclopropoxy)-1H-pyrazolo[3,4-c]pyridin-3-yl]pyrimidin-4-yl}piperidin-4-yl)methyl]piperazin-1-yl]methyl}piperidin-1-yl)-1-oxo-2,3-dihydro-1H-isoindol-2-yl]piperidine-2,6-dione], the Dmax under setting [1] is no less than 70%. Moreover, the DC50 under setting [2] was less than 10 nM.

As to `CC1(Oc2ccc3[nH]nc(-c4cc(N5CCC(CCN6CCC7(CN(c8ccc9c(c8F)CN(C8CCC(=O)NC8=O)C9=O)C7)C(F)(F)C6)CC5)ncn4)c3c2)CC1` (centres unmarked) [Compound 376, 3-(5-{5,5-difluoro-7-[2-(1-{6-[5-(1-methylcyclopropoxy)-1H-indazol-3-yl]pyrimidin-4-yl}piperidin-4-yl)ethyl]-2,7-diazaspiro[3.5]nonan-2-yl}-4-fluoro-1-oxo-2,3-dihydro-1H-isoindol-2-yl)piperidine-2,6-dione], under setting [5], the DC50 is less than 10 nM. Besides, under setting [6], the Dmax lay in the range of 50 to 70%.

As to `COc1c(N2CCC(C(C)(C)N3CCN(CC4CCN(c5cc(-c6n[nH]c7ccc(OC8(C)CC8)cc67)ncn5)CC4)CC3)CC2)ccc2c1CN(C1CCC(=O)NC1=O)C2=O` (centres unmarked) [Compound 318, 3-{4-methoxy-5-[4-(2-{4-[(1-{6-[5-(1-methylcyclopropoxy)-1H-indazol-3-yl]pyrimidin-4-yl}piperidin-4-yl)methyl]piperazin-1-yl}propan-2-yl)piperidin-1-yl]-1-oxo-2,3-dihydro-1H-isoindol-2-yl}piperidine-2,6-dione], under setting [1], the Dmax is no less than 70%. In addition, under setting [2], the half-maximal degradation concentration (DC50) was less than 10 nM.

Turning to `CC1(Oc2cc3c(-c4cc(N5CCC(CC6(F)CCN(CC7CCN(c8ccc9c(c8F)CN(C8CCC(=O)NC8=O)C9=O)CC7)CC6)CC5)ncn4)n[nH]c3cc2F)CC1` (centres unmarked) [Compound 207, 3-[4-fluoro-5-[4-[[4-fluoro-4-[[1-[6-[6-fluoro-5-(1-methylcyclopropoxy)-1H-indazol-3-yl]pyrimidin-4-yl]-4-piperidyl]methyl]-1-piperidyl]methyl]-1-piperidyl]-1-oxo-isoindolin-2-yl]piperidine-2,6-dione], the DC50 under setting [5] is 10 to 50 nM. Moreover, the Dmax under setting [6] lay within 50 to 70%.

In the case of `C[C@H]1CN(CC2CCN(CC3CCN(c4cc(-c5n[nH]c6ccc(OC7(C)CC7)cc56)ncn4)CC3)CC2)CCN1c1ccc2c(c1F)CN(C1CCC(=O)NC1=O)C2=O` (stereo partly drawn) [Compound 339, 3-{4-fluoro-5-[(2S)-2-methyl-4-({1-[(1-{6-[5-(1-methylcyclopropoxy)-1H-indazol-3-yl]pyrimidin-4-yl}piperidin-4-yl)methyl]piperidin-4-yl}methyl)piperazin-1-yl]-1-oxo-2,3-dihydro-1H-isoindol-2-yl}piperidine-2,6-dione], under setting [1], the Dmax was 50 to 70%. Further, the DC50 under setting [2] was less than 10 nM.

Regarding `COc1c(N2CCC(CN3CCN(CC4CCN(c5cc(-c6n[nH]c7ccc(OC8(C)CC8)cc67)ncn5)CC4)CC3(C)C)CC2)ccc2c1CN(C1CCC(=O)NC1=O)C2=O` (centres unmarked) [Compound 262, 3-{5-[4-({2,2-dimethyl-4-[(1-{6-[5-(1-methylcyclopropoxy)-1H-indazol-3-yl]pyrimidin-4-yl}piperidin-4-yl)methyl]piperazin-1-yl}methyl)piperidin-1-yl]-4-methoxy-1-oxo-2,3-dihydro-1H-isoindol-2-yl}piperidine-2,6-dione], the Dmax under setting [1] is 50 to 70%. The DC50 under setting [2] is less than 10 nM.
